We go through 3 compounds from paper PMC4457528, “Identification of Novel Small Molecule Inhibitors of Oncogenic RET Kinase” (PLoS ONE, 2015).

Holding throughout (experiment): KinomeScan kinase panel, single concentration 10 µM
Common to all, as to assay type: binding

Test [1] deals with T1, KinomeScan kinase panel (Homo sapiens, UniProt P42684).
T1 construct: purchased DiscoveRx (KinomeScan)
Particulars: ABL2, 10 µM; read-out: score (%).

Test [2] concerns the target T2, KinomeScan kinase panel (Homo sapiens, UniProt Q9NRP7).
T2 construct: purchased DiscoveRx (KinomeScan)
T2 sequence (Q9NRP7 1-1315): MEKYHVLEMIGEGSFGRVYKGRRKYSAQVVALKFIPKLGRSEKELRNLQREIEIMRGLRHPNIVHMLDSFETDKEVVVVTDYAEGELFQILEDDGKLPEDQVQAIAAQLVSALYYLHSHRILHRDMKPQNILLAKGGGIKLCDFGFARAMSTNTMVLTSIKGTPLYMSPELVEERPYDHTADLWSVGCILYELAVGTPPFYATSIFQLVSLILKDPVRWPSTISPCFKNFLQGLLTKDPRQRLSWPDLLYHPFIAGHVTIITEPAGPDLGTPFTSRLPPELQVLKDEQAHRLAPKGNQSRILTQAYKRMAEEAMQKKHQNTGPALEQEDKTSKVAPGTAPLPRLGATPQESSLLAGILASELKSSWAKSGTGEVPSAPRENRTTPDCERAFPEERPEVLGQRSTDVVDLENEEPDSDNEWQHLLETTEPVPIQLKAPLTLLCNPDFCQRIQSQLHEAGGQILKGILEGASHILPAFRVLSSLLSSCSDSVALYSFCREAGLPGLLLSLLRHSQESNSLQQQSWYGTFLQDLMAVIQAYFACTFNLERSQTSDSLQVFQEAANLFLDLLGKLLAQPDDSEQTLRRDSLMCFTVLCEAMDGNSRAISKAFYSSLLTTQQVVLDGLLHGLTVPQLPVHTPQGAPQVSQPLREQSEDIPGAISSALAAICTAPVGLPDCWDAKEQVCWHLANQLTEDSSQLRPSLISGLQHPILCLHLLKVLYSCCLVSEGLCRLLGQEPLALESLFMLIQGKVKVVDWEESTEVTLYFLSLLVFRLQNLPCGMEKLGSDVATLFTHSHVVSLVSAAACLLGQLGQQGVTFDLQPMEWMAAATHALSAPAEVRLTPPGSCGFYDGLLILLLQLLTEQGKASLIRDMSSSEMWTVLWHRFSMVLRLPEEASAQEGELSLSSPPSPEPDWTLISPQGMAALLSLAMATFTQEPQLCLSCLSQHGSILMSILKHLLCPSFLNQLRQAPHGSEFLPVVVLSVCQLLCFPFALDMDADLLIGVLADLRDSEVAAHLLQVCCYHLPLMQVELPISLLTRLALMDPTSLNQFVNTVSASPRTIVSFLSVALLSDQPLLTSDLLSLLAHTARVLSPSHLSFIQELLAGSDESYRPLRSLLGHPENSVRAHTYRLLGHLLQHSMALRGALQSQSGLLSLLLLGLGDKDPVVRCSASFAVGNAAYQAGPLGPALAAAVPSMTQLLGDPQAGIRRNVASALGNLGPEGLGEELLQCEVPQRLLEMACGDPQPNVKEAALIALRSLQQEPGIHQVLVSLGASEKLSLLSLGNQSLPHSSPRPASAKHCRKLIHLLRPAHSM
Particulars: read-out: score (%).

For test [3], the target named is T3, KinomeScan kinase panel (Homo sapiens, UniProt P36896).
T3 construct: purchased DiscoveRx (KinomeScan)
T3 sequence (P36896 24-505): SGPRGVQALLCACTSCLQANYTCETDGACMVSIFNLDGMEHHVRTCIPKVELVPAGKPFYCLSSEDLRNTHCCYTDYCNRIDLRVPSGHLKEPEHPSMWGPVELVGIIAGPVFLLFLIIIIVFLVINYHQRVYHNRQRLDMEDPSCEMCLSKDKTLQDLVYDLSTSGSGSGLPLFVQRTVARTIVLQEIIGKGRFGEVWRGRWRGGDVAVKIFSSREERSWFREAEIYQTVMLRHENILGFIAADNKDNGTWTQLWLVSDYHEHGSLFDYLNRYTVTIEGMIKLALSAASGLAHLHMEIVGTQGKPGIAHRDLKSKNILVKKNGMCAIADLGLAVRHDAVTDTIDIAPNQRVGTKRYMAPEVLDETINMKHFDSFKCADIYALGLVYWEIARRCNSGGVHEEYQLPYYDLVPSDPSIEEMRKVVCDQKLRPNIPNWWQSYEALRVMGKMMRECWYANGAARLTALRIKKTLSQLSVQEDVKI
The following applies: ACVR1B, 10 µM; read-out: score (%).

Test [4] has as its target T4, KinomeScan kinase panel (Homo sapiens, UniProt P36897).
T4 construct: purchased DiscoveRx (KinomeScan)
T4 sequence (P36897 34-503): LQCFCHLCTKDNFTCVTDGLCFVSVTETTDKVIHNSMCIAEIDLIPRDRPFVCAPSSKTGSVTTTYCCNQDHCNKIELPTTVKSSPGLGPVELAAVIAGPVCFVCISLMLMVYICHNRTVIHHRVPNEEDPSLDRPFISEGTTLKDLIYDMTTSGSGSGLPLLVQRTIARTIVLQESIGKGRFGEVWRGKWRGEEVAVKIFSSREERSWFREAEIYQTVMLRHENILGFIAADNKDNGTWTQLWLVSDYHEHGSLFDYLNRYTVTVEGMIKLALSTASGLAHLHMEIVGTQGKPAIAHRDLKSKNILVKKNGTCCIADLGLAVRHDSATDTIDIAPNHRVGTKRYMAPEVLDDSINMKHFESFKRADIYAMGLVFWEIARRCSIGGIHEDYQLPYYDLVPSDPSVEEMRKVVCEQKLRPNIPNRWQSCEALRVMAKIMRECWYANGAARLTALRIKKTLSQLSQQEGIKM
Particulars: read-out: score (%).

The target in test [5] is T5, KinomeScan kinase panel (Homo sapiens, UniProt P49674).
T5 construct: purchased DiscoveRx (KinomeScan)
T5 sequence (P49674 whole entry): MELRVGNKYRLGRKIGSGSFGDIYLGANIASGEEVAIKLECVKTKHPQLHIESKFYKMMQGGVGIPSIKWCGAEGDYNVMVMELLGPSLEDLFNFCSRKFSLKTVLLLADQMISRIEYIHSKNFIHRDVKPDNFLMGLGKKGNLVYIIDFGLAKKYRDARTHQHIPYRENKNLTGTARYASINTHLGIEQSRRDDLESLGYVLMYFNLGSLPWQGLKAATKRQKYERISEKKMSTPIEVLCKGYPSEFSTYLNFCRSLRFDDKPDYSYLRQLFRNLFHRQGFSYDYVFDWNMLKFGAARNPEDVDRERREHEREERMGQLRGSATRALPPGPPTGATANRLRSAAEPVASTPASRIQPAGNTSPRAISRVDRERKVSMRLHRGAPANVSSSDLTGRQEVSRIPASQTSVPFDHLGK
Particulars: CSNK1E, 10 µM; read-out: score (%).

Test [6] addresses T6, KinomeScan kinase panel (Homo sapiens, UniProt P45985).
T6 construct: purchased DiscoveRx (KinomeScan)
T6 sequence (P45985 1-399): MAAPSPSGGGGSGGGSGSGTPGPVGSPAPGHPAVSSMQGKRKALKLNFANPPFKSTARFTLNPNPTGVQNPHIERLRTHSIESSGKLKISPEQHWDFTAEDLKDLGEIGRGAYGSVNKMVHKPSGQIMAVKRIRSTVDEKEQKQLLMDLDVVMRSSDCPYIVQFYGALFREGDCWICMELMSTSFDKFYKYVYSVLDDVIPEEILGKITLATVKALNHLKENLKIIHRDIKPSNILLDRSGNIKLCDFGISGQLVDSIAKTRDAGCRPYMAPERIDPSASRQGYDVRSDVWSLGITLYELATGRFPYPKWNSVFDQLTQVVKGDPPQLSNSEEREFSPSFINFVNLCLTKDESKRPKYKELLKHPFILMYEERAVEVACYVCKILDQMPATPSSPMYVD
The following applies: MEK4, 10 µM; read-out: score (%).

The target in test [7] is T7, KinomeScan kinase panel (Homo sapiens, UniProt P29597).
T7 construct: purchased DiscoveRx (KinomeScan)
T7 sequence (P29597 whole entry): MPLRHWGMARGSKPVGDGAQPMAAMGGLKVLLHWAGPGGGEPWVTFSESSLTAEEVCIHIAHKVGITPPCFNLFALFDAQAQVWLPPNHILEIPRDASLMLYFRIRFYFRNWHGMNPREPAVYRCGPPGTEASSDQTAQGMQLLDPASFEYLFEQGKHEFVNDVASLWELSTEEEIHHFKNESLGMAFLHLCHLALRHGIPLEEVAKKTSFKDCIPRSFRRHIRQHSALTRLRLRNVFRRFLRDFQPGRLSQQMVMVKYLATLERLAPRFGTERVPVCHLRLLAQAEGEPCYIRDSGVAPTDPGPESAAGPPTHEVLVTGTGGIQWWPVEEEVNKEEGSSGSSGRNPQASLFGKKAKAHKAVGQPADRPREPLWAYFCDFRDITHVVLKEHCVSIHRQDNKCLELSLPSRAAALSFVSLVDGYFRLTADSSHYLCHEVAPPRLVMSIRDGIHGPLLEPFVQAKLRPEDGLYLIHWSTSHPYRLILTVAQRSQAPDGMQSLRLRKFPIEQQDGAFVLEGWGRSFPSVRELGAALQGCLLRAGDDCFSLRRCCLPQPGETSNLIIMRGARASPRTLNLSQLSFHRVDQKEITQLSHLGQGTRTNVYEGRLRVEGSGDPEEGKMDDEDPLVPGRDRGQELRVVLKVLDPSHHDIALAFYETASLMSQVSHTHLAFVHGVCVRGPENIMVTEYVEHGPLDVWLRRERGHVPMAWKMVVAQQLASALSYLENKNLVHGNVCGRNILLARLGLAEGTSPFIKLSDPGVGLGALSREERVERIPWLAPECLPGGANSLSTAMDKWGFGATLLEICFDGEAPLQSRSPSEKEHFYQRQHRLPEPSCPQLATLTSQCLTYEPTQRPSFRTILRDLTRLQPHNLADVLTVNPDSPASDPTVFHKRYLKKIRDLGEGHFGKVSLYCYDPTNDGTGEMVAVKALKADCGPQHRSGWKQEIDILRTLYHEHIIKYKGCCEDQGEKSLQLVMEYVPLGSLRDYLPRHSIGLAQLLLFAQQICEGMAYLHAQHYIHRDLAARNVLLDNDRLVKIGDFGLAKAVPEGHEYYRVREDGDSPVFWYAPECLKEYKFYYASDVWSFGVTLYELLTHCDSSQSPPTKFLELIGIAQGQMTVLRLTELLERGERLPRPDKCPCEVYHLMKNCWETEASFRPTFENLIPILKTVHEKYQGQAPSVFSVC

Where [8] appears, read: kinase TYK2(JH1domain-catalytic), 10 µM.

Read-outs that look alike come from different tables or passages of the source.

T1 sequence (P42684 whole entry): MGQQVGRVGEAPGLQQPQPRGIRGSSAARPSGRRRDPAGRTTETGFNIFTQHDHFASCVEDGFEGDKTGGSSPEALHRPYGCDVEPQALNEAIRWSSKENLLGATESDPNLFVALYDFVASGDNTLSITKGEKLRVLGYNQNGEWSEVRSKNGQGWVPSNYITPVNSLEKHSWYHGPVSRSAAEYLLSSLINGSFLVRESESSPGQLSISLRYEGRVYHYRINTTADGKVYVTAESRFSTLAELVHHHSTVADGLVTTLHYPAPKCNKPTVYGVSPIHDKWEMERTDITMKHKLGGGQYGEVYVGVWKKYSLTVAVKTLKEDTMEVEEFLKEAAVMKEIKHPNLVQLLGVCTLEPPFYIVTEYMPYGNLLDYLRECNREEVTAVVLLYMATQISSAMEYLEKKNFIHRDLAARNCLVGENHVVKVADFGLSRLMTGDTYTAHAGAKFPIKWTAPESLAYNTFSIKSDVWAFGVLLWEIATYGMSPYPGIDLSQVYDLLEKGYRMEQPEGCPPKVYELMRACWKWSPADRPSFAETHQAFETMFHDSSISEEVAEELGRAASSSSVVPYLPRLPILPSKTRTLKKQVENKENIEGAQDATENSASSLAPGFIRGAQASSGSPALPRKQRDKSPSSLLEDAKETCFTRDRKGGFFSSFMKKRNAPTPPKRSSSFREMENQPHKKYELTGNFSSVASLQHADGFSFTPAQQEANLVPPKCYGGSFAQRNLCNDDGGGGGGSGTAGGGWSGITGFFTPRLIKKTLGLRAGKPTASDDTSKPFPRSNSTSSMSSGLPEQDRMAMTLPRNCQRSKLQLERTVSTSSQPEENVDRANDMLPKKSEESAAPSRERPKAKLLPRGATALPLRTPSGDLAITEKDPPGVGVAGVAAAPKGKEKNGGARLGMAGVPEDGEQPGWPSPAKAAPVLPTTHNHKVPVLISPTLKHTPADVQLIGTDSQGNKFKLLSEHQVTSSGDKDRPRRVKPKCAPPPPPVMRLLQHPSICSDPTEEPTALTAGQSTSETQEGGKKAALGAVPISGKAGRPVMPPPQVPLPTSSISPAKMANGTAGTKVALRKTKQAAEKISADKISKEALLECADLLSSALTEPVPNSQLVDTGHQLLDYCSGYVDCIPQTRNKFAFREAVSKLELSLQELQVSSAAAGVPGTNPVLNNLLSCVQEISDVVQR

As for `CCN1CCN(Cc2ccc(NC(=O)c3ccc(C)c(NC(=O)c4cncc(-c5cccs5)c4)c3)cc2C(F)(F)F)CC1` [ALW-II-41-27], the remaining binding at 10 µM was 0.1% in test [1]; 0.2% in test [2] (kinase STK36, 10 µM); more than 30% in test [3]; more than 30% in test [4] (kinase TGFBR1, 10 µM); 0.8% in test [5]; more than 30% in test [6]. In addition, the “score (%)” value is listed as “nb (Hits values higher than 30% were considered negative (no binding: nb))” in test [7] and 9.8% in test [7] (setting [8]).

Take `CCN1CCN(Cc2ccc(NC(=O)c3ccc(C)c(/C=C/c4cnc5[nH]ccc5c4Cl)c3)cc2C(F)(F)F)CC1` [HG-6-63-01, (E)-3-(2-(4-chloro-1H-pyrrolo[2,3-b]pyridin-5-yl)vinyl)-N-(4-((4-ethylpiperazin-1-yl)methyl)-3-(trifluoromethyl)phenyl)-4-methylbenzamide]: the remaining binding at 10 µM is 0.1% in test [1]; 0.05% in test [2] (STK36, 10 µM); more than 30% in test [3]; more than 30% in test [4] (TGFBR1, 10 µM); 15% in test [5]; more than 30% in test [6]. Also, the “score (%)” value in test [7] (kinase TYK2(Kin.Dom.1), 10 µM) is on record as “nb (Hits values higher than 30% were considered negative (no binding: nb))”; in test [7] (kinase TYK2(Kin.Dom.2), 10 µM), 7%.

Regarding `CCN1CCN(Cc2ccc(NC(=O)c3ccc(C)c(C#Cc4cccnc4)c3)cc2C(F)(F)F)CC1` [XMD15-44], the remaining binding at 10 µM was 0.05% in test [1]; 0.4% in test [2] (kinase STK36, 10 µM); more than 30% in test [3]; 100% in test [4] (kinase TGFBR1, 10 µM); more than 30% in test [5]; more than 30% in test [6]. Further, the “score (%)” value in test [7] (setting [8]) is recorded as 4.2%; in test [7] (kinase TYK2(JH2domain-pseudokinase), 10 µM), 99%.
